PMC10177727 (Clinical Drug Investigation, 2023)
Like-named read-outs stand apart in the source and are kept apart here.

Tests used:
CYP3A [1] = settings: midazolam with ensitrelvir 375/125 mg / midazolam alone, Day 5/Day -2
CYP3A [2] = test: clinical; settings: human, in vivo, po, 2 mg, midazolam 2 mg alone, Day -2
[3] = Safety and tolerability: treatment-emergent adverse events; type: in vivo, healthy Japanese adult participants
CYP3A [4] = settings: with ensitrelvir 750/250 mg; cited from earlier work
CYP3A [5] = tested on: CYP3A
CYP3A [6] = settings: with itraconazole, prednisolone 20 mg administered on Day 5; cited from earlier work
CYP3A [7] = test: clinical; settings: human, in vivo, po, 10 mg; for half-life: t1/2,z GLS mean
[8] = ensitrelvir; cited from earlier work
CYP3A [9] = target: CYP3A (Homo sapiens, UniProt P08684); settings: pre-clinical in vitro findings
Sequence of CYP3A (Homo sapiens, UniProt P08684) (P08684 2-503): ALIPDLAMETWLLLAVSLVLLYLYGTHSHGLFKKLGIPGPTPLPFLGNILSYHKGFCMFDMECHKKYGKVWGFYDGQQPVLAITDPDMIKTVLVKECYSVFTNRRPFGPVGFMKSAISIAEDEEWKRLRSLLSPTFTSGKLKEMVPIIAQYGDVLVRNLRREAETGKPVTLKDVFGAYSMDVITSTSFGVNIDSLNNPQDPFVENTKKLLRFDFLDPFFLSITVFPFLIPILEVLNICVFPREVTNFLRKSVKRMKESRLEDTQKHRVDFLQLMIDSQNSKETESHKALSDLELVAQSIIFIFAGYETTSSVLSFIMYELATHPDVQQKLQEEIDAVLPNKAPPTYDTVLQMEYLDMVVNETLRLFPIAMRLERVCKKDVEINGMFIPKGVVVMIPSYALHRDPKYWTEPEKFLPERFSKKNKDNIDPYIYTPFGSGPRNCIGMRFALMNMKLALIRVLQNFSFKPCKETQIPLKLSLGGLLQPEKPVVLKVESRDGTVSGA

[10] = midazolam cohort (ensitrelvir 375/125 mg + midazolam 2 mg), N = 14
[11] = 5th day after the last ensitrelvir dose / prednisolone alone, Day 9/Day -2
[12] = 10th day after the last ensitrelvir dose / prednisolone alone, Day 14/Day -2
[13] = prednisolone with ensitrelvir 750/250 mg / prednisolone alone, Day 5/Day -2
[14] = Ensitrelvir 375/125 mg + midazolam, N = 14
[15] = Ensitrelvir 375/125 mg + midazolam, N = 14, listed as ensitrelvir
[16] = Ensitrelvir 750/250 mg + dexamethasone, N = 14
[17] = Ensitrelvir 750/250 mg + dexamethasone, N = 14, listed as ensitrelvir
[18] = Ensitrelvir 750/250 mg + prednisolone, N = 14

Cc1ncc2n1-c1ccc(Cl)cc1C(c1ccccc1F)=NC2 [Midazolam]
AUC0–inf GLS mean ratio (90% CI) (CYP3A [1]): 6.7685 (6.1572–7.4404) | AUC0–last GLS mean ratio (90% CI) (CYP3A [1]): 6.9011 (6.2722–7.5931) | Cmax GLS mean ratio (90% CI) (CYP3A [1]): 2.8012 (2.3798–3.2971) | MRT GLS mean ratio (90% CI) (CYP3A [1]): 2.6506 (2.4623–2.8532) | t1/2,z GLS mean ratio (90% CI) (CYP3A [1]): 2.2750 (2.0373–2.5406) | λz GLS mean ratio (90% CI) (CYP3A [1]): 0.4396 (0.3936–0.4909) | AUC(0-inf) (CYP3A [2]; AUC0–inf GLS mean): 24.1 ng·h/mL | AUC(0-t) (CYP3A [2]; AUC0–last GLS mean): 23.4 ng·h/mL | Cmax (CYP3A [2]; Cmax GLS mean): 12.6 ng/mL | MRT (CYP3A [2]; MRT GLS mean): 3.18 h | half-life (CYP3A [2]; t1/2,z GLS mean): 3.24 h | k el (CYP3A [2]; λz GLS mean): 5.94e-05 s⁻¹ | Diarrhea, events related to midazolam [3, 10]: 1 | Somnolence, events related to midazolam [3, 10]: 8 | increase in the plasma exposure of midazolam (CYP3A [4]): 8.80 fold | increased ratio of Cmax of midazolam (CYP3A [4]): 2.78 fold

C[C@]12C=CC(=O)C=C1CC[C@@H]1[C@@H]2[C@@H](O)C[C@@]2(C)[C@H]1CC[C@]2(O)C(=O)CO [Prednisolone]
AUC0–inf GLS mean ratio (90% CI) (CYP3A [5]; [11]): 1.1243 (1.0973–1.1521) | AUC0–last GLS mean ratio (90% CI) (CYP3A [5]; [11]): 1.1142 (1.0842–1.1451) | Cmax GLS mean ratio (90% CI) (CYP3A [5]; [11]): 1.0953 (0.9865–1.2160) | MRT GLS mean ratio (90% CI) (CYP3A [5]; [11]): 1.0569 (1.0095–1.1065) | t1/2,z GLS mean ratio (90% CI) (CYP3A [5]; [11]): 1.0660 (1.0349–1.0980) | λz GLS mean ratio (90% CI) (CYP3A [5]; [11]): 0.9381 (0.9107–0.9663) | AUC0–inf GLS mean ratio (90% CI) (CYP3A [5]; [12]): 1.0396 (1.0146–1.0653) | AUC0–last GLS mean ratio (90% CI) (CYP3A [5]; [12]): 1.0267 (0.9990–1.0552) | Cmax GLS mean ratio (90% CI) (CYP3A [5]; [12]): 0.9927 (0.8941–1.1021) | MRT GLS mean ratio (90% CI) (CYP3A [5]; [12]): 1.0419 (0.9952–1.0908) | t1/2,z GLS mean ratio (90% CI) (CYP3A [5]; [12]): 1.0474 (1.0169–1.0789) | λz GLS mean ratio (90% CI) (CYP3A [5]; [12]): 0.9547 (0.9269–0.9834) | AUC0–inf GLS mean ratio (90% CI) (CYP3A [5]; [13]): 1.2476 (1.2176–1.2784) | AUC0–last GLS mean ratio (90% CI) (CYP3A [5]; [13]): 1.2408 (1.2073–1.2752) | Cmax GLS mean ratio (90% CI) (CYP3A [5]; [13]): 1.1141 (1.0035–1.2369) | MRT GLS mean ratio (90% CI) (CYP3A [5]; [13]): 1.1065 (1.0569–1.1584) | t1/2,z GLS mean ratio (90% CI) (CYP3A [5]; [13]): 1.1160 (1.0835–1.1496) | λz GLS mean ratio (90% CI) (CYP3A [5]; [13]): 0.8960 (0.8699–0.9230) | AUC of prednisolone increase (CYP3A [6]): 1.24 fold | AUC(0-inf) (CYP3A [7]; AUC0–inf GLS mean, prednisolone 10 mg alone, Day -2): 1090 ng·h/mL | AUC(0-t) (CYP3A [7]; AUC0–last GLS mean, prednisolone 10 mg alone, Day -2): 1040 ng·h/mL | Cmax (CYP3A [7]; Cmax GLS mean, prednisolone 10 mg alone, Day -2): 243 ng/mL | MRT (CYP3A [7]; MRT GLS mean, prednisolone 10 mg alone, Day -2): 4.26 h | half-life (CYP3A [7]; prednisolone 10 mg alone, Day -2): 2.55 h | half-life (CYP3A [7]; prednisolone 10 mg, 5th day after the last ensitrelvir dose, Day 9): 2.71 h | half-life (CYP3A [7]; prednisolone 10 mg, 10th day after the last ensitrelvir dose, Day 14): 2.67 h | k el (CYP3A [7]; λz GLS mean, prednisolone 10 mg alone, Day -2): 7.56e-05 s⁻¹

Cn1cnc(Cn2c(=O)[nH]/c(=N\c3cc4cn(C)nc4cc3Cl)n(Cc3cc(F)c(F)cc3F)c2=O)n1 [Ensitrelvir, Ensitrelvir fumaric acid]
t1/2,z [8]: 42.2 to 48.1 h | Arthropod sting, Events [3, 14]: 1 | Arthropod sting, N (%) [3, 14]: 1 (7.1) | Blood triglycerides increased, Events [3, 14]: 1 | Blood triglycerides increased, N (%) [3, 14]: 1 (7.1) | Blood triglycerides increased, events Related to ensitrelvir [3, 14]: 1 | Diarrhea, Events [3, 14]: 1 | Diarrhea, N (%) [3, 14]: 1 (7.1) | Gastrointestinal disorders, Events [3, 14]: 1 | Gastrointestinal disorders, N (%) [3, 14]: 1 (7.1) | High-density lipoprotein decreased, Events [3, 14]: 8 | High-density lipoprotein decreased, N (%) [3, 14]: 8 (57.1) | High-density lipoprotein decreased, events Related to ensitrelvir [3, 14]: 8 | Injury, poisoning and procedural complications, Events [3, 14]: 1 | Injury, poisoning and procedural complications, N (%) [3, 14]: 1 (7.1) | Investigations, Events [3, 14]: 9 | Investigations, N (%) [3, 14]: 8 (57.1) | Investigations, events Related to ensitrelvir [3, 14]: 9 | Nervous system disorders, Events [3, 14]: 10 | Nervous system disorders, N (%) [3, 14]: 9 (64.3) | Nervous system disorders, events Related to ensitrelvir [3, 14]: 2 | Participants with any TEAE, Events [3, 14]: 21 | Participants with any TEAE, N (%) [3, 14]: 11 (78.6) | Participants with any TEAE, events Related to ensitrelvir [3, 14]: 11 | Somnolence, Events [3, 14]: 10 | Somnolence, N (%) [3, 14]: 9 (64.3) | Somnolence, events Related to ensitrelvir [3, 14]: 2 | Arthropod sting, N (%) [3, 15]: 1 | Blood triglycerides increased, N (%) [3, 15]: 1 | Diarrhea, N (%) [3, 15]: 1 | High-density lipoprotein decreased, N (%) [3, 15]: 8 | Participants with any TEAE, N (%) [3, 15]: 11 | Somnolence, N (%) [3, 15]: 9 | Atrioventricular block, Events [3, 16]: 1 | Atrioventricular block, N (%) [3, 16]: 1 (7.1) | Blood triglycerides increased, Events [3, 16]: 4 | Blood triglycerides increased, N (%) [3, 16]: 4 (28.6) | Blood triglycerides increased, events Related to ensitrelvir [3, 16]: 3 | Cardiac disorders, Events [3, 16]: 1 | Cardiac disorders, N (%) [3, 16]: 1 (7.1) | Dizziness, Events [3, 16]: 1 | Dizziness, N (%) [3, 16]: 1 (7.1) | Dizziness, events Related to ensitrelvir [3, 16]: 1 | Headache, Events [3, 16]: 1 | Headache, N (%) [3, 16]: 1 (7.1) | Headache, events Related to ensitrelvir [3, 16]: 1 | High-density lipoprotein decreased, Events [3, 16]: 5 | High-density lipoprotein decreased, N (%) [3, 16]: 5 (35.7) | High-density lipoprotein decreased, events Related to ensitrelvir [3, 16]: 5 | Investigations, Events [3, 16]: 9 | Investigations, N (%) [3, 16]: 7 (50.0) | Investigations, events Related to ensitrelvir [3, 16]: 8 | Nervous system disorders, Events [3, 16]: 2 | Nervous system disorders, N (%) [3, 16]: 1 (7.1) | Nervous system disorders, events Related to ensitrelvir [3, 16]: 2 | Papule, Events [3, 16]: 1 | Papule, N (%) [3, 16]: 1 (7.1) | Papule, events Related to ensitrelvir [3, 16]: 1 | Participants with any TEAE, Events [3, 16]: 13 | Participants with any TEAE, N (%) [3, 16]: 9 (64.3) | Participants with any TEAE, events Related to ensitrelvir [3, 16]: 11 | Skin and subcutaneous tissue disorders, Events [3, 16]: 1 | Skin and subcutaneous tissue disorders, N (%) [3, 16]: 1 (7.1) | Skin and subcutaneous tissue disorders, events Related to ensitrelvir [3, 16]: 1 | Atrioventricular block, N (%) [3, 17]: 1 | Blood triglycerides increased, N (%) [3, 17]: 4 | Dizziness, N (%) [3, 17]: 1 | Headache, N (%) [3, 17]: 1 | Papule, N (%) [3, 17]: 1 | Participants with any TEAE, N (%) [3, 17]: 9 | Atrioventricular block, Events [3, 18]: 0 | Atrioventricular block, N (%) [3, 18]: 0 | Atrioventricular block, events Related to ensitrelvir [3, 18]: 0 | Blood triglycerides increased, Events [3, 18]: 0 | Blood triglycerides increased, N (%) [3, 18]: 0 | Blood triglycerides increased, events Related to ensitrelvir [3, 18]: 0 | Cardiac disorders, Events [3, 18]: 0 | Cardiac disorders, N (%) [3, 18]: 0 | Cardiac disorders, events Related to ensitrelvir [3, 18]: 0 | Dizziness, Events [3, 18]: 0 | Dizziness, N (%) [3, 18]: 0 | Dizziness, events Related to ensitrelvir [3, 18]: 0 | Headache, Events [3, 18]: 0 | Headache, N (%) [3, 18]: 0 | Headache, events Related to ensitrelvir [3, 18]: 0 | High-density lipoprotein decreased, Events [3, 18]: 14 | High-density lipoprotein decreased, N (%) [3, 18]: 14 (100.0) | High-density lipoprotein decreased, events Related to ensitrelvir [3, 18]: 14 | Investigations, Events [3, 18]: 14 | Investigations, N (%) [3, 18]: 14 (100.0) | Investigations, events Related to ensitrelvir [3, 18]: 14 | Nervous system disorders, Events [3, 18]: 0 | Nervous system disorders, N (%) [3, 18]: 0 | Nervous system disorders, events Related to ensitrelvir [3, 18]: 0 | Papule, Events [3, 18]: 0 | Papule, N (%) [3, 18]: 0 | Papule, events Related to ensitrelvir [3, 18]: 0 | Participants with any TEAE, Events [3, 18]: 14 | Participants with any TEAE, N (%) [3, 18]: 14 (100.0) | Participants with any TEAE, events Related to ensitrelvir [3, 18]: 14 | Skin and subcutaneous tissue disorders, Events [3, 18]: 0 | Skin and subcutaneous tissue disorders, N (%) [3, 18]: 0 | Skin and subcutaneous tissue disorders, events Related to ensitrelvir [3, 18]: 0 | Participants with any TEAE, N (%) ([3]; Ensitrelvir 750/250 mg + prednisolone, N = 14, listed as ensitrelvir): 14 | serious TEAEs ([3]; all cohorts): no serious TEAEs | tolerability ([3]; multiple-dose ensitrelvir with CYP3A substrates): well tolerated | reversible inhibitory effect on CYP3A4 (CYP3A [9]): no reversible inhibitory effect | time-dependent inhibition of CYP3A (CYP3A [9]): time-dependent NADPH-mediated inhibition
